Patent US11912693B2, “Compounds for modulating S1P1 activity and methods of using the same” (TREVENA, INC., priority 2017, dated 2024)

What was measured:
[1] = molecular target: T1, human sphingosine-1-phosphate receptor 1 (S1P1) (Homo sapiens (Human), UniProt P21453); assay: β-Arrestin2 recruitment assay (PathHunter), S1P1 CHO-K1 cells; format: cell-based; settings: for Emax: CHO-K1, efficacy (SPAN) normalized to fingolimod, read-out: hS1P1 B-arrestin2 SPAN; for hS1P1 B-arrestin2 pEC50: β-arrestin2 recruitment, S1P1 CHO-K1 cells
Method in brief: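 Enzyme-fragment complementation read-out: agonist-driven β-arrestin2 binding to ProLink-tagged human S1P1 in stable CHO-K1 cells restores β-galactosidase, measured 1 h at room temperature after a 60 min 37° C. compound incubation. Potency as pEC50, efficacy relative to fingolimod (SPAN).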
Target sequence in this assay (P21453 whole entry, looked up, the tested form may be a part): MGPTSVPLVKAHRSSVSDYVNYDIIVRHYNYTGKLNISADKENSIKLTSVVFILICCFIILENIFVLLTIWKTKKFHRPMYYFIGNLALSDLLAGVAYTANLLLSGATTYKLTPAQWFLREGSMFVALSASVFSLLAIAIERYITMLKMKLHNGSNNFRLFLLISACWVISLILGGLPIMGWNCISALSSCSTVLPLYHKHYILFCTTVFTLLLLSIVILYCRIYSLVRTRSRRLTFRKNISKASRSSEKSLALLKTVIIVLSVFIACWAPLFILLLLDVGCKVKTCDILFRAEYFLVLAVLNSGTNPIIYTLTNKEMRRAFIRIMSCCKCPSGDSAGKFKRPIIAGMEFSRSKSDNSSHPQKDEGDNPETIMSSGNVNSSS
Target sequence in this assay (P32121 whole entry partner, looked up, the tested form may be a part): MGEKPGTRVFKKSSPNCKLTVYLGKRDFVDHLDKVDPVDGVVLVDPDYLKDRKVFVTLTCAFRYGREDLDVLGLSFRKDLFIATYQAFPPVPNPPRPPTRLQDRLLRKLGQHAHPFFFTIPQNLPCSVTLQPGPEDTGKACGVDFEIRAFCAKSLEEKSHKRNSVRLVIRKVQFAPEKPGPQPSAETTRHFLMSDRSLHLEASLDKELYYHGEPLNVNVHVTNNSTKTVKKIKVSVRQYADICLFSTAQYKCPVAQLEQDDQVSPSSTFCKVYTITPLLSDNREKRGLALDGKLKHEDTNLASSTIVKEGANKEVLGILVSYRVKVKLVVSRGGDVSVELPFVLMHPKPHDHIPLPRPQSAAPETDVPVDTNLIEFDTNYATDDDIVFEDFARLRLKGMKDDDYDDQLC

[2] = molecular target: T1, human sphingosine-1-phosphate receptor 1 (S1P1); assay: Inhibition of cAMP production (HTRF cAMP HiRange), S1P1 CHO-K1 cells; format: cell-based; settings: for Emax: CHO-K1, efficacy (SPAN) normalized to fingolimod, read-out: hS1P1 cAMP SPAN; for hS1P1 cAMP pEC50: inhibition of cAMP production, S1P1 CHO-K1 cells
Method in brief: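 CHO-K1 cells stably co-expressing human S1P1 (C-terminal Prolink tag) and EA-β-arrestin2 were grown in AssayComplete Media 6 at 37° C. and 5% CO2, plated, and incubated overnight. Agonist-driven inhibition of intracellular cAMP was read by TR-FRET with the HTRF cAMP HiRange kit on a PheraStar reader. Potency is pEC50, and efficacy (SPAN) is normalized to fingolimod.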
Target sequence in this assay (P21453 whole entry, looked up, the tested form may be a part): as the sequence (P21453 whole entry, looked up, the tested form may be a part) above

SMILES	Emax [1] [%]	hS1P1 B-arrestin2 pEC50 [1]	Emax [2] [%]	hS1P1 cAMP pEC50 [2]
CC(C)n1nnc2cc(-c3nc(-c4ccc5nc[nH]c5c4)no3)ccc21 [Compound 511, 5-[3-(1H-1,3-benzodiazol-6-yl)-1,2,4-oxadiazol-5-yl]-1-(propan-2-yl)-1H-1,2,3-benzotriazole]	> 75	>5	< 75	>6.5
CCC1(CC)CC(=O)c2cc(-c3nc(-c4ccnc(NC(C)=O)c4)no3)ccc2O1 [Compound 512, N-(4-(5-(2,2-diethyl-4-oxochroman-6-yl)-1,2,4-oxadiazol-3-yl)pyridin-2-yl)acetamide]		>5		>6.5
COc1cccc2nc(-c3ccc4c(c3)nnn4C(C)C)oc12 [Compound 515, 2-(1-isopropyl-1H-benzo[d][1,2,3]triazol-5-yl)-7-methoxybenzo[d]oxazole]	> 75	>5	> 75	>6.5
Cc1ccccc1-c1c[nH]c(-c2ccc3c(c2)nnn3C(C)C)c1 [Compound 516, 5-[4-(2-methylphenyl)-1H-pyrrol-2-yl]-1-(propan-2-yl)-1H-1,2,3-benzotriazole]	< 75	>5	< 75	<6.5
Cc1ccccc1-c1cc(-c2ccc3c(c2)nnn3C(C)C)n(C)c1 [Compound 517, 5-[1-methyl-4-(2-methylphenyl)-1H-pyrrol-2-yl]-1-(propan-2-yl)-1H-1,2,3-benzotriazole]	< 75	>5	< 75	<6.5
Cc1cn(C)nc1-c1noc(-c2ccc3c(c2)nnn3CC(C)(C)O)n1 [Compound 518, 1-{5-[3-(1,4-dimethyl-1H-pyrazol-3-yl)-1,2,4-oxadiazol-5-yl]-1H-1,2,3-benzotriazol-1-yl}-2-methylpropan-2-ol]		<5		<6.5
CCC1(CC)CC(=O)c2cc(-c3nc(-c4ccc5ncccc5c4)no3)ccc2O1 [Compound 521, 2,2-diethyl-6-(3-(quinolin-6-yl)-1,2,4-oxadiazol-5-yl)chroman-4-one]		<5		<6.5
CCC1(CC)CC(=O)c2cc(-c3nc(-c4ccc5cnccc5c4)no3)ccc2O1 [Compound 522, 2,2-diethyl-6-(3-(isoquinolin-6-yl)-1,2,4-oxadiazol-5-yl)chroman-4-one]		<5		<6.5
COc1ccc(-c2nc(-c3ccc4c(c3)nnn4CC(C)(C)CO)no2)c(C)c1 [Compound 523, 3-(5-(5-(4-methoxy-2-methylphenyl)-1,2,4-oxadiazol-3-yl)-1H-benzo[d][1,2,3]triazol-1-yl)-2,2-dimethylpropan-1-ol]		<5		<6.5
Cc1ccsc1-c1nc(-c2ccc3c(c2)nnn3CC(C)(C)CO)no1 [Compound 524, 2,2-dimethyl-3-(5-(5-(3-methylthiophen-2-yl)-1,2,4-oxadiazol-3-yl)-1H-benzo[d][1,2,3]triazol-1-yl)propan-1-ol]		>5		>6.5
COc1ccccc1-c1nc(-c2ccc3c(c2)nnn3CC(C)(C)CO)no1 [Compound 525, 3-(5-(5-(2-methoxyphenyl)-1,2,4-oxadiazol-3-yl)-1H-benzo[d][1,2,3]triazol-1-yl)-2,2-dimethylpropan-1-ol]		<5		<6.5
CC(C)(CO)Cn1nnc2cc(-c3noc(-c4ccccc4Cl)n3)ccc21 [Compound 526, 3-(5-(5-(2-chlorophenyl)-1,2,4-oxadiazol-3-yl)-1H-benzo[d][1,2,3]triazol-1-yl)-2,2-dimethylpropan-1-ol]		<5		<6.5
CCc1ccccc1-c1nc(-c2ccc3c(c2)nnn3CC(C)(C)CO)no1 [Compound 527, 3-(5-(5-(2-ethylphenyl)-1,2,4-oxadiazol-3-yl)-1H-benzo[d][1,2,3]triazol-1-yl)-2,2-dimethylpropan-1-ol]		<5		<6.5
